# In patent US20250059207A1, “6,6-FUSED HETEROCYCLIC COMPOUNDS AS METTL3 INHIBITORS” (858 Therapeutics, Inc., priority 2021, published 2025):
# System: MOLM-13 cells
# Experiment: Viability assay in MOLM-13 cells (CellTiter-Glo 2.0)
# Format: cell-based, human
# Settings: Homo sapiens, MOLM-13, 72 h, read-out: MOLM-13 IC50 (cell viability)
# Method: Effects of test compounds on the proliferation and viability of human AML cells was evaluated using the MOLM-13 cell line (AddexBio Technologies cat. no. C0003003). […] Test compounds or controls (Bortezomib or DMSO) diluted in 2% DMSO/media were added to each well for final concentrations of 0.2% DMSO and 0.1-1 μM Bortezomib. The cells were incubated for 72 hours at 37° C. and 5% CO2. At the end of the 72 hour incubation, plates were removed from the incubator, cooled to room temperature and equal volume of CellTiter-Glo 2.0 (Promega) added to each well. After mixing and incubating the plate at room temperature for 10 minutes the luminescence was read using a plate reader. […] Concentration-response-curves and IC50 values were generated using Collaborative Drug Discovery software.
row,SMILES,IC50 [µM]
1,"COCCNc1ccnc(NCc2ccc3nc(Cn4ccc5c(-c6ccccc6)cncc5c4=O)cn3c2)c1 [Compound 99, 2-((6-(((4-((2-methoxyethyl)amino)pyridin-2-yl)amino)methyl)imidazo[1,2-a]pyridin-2-yl)methyl)-5-phenyl-2,7-naphthyridin-1(2H)-one]",> 10
2,"O=c1c2cncc(N3CC4(CCOC4)C3)c2ccn1Cc1cn2cc(CNCC34CC(F)(C3)C4)ccc2n1 [Compound 151, 2-((6-((((3-fluorobicyclo[1.1.1]pentan-1-yl)methyl)amino)methyl)imidazo[1,2-a]pyridin-2-yl)methyl)-5-(6-oxa-2-azaspiro[3.4]octan-2-yl)-2,7-naphthyridin-1(2H)-one]",< 1
3,"O=c1c2cncc(-c3ccccc3)c2ccn1Cc1cn2cc(CNCc3ccc(Cl)cc3)ccc2n1 [Compound 84, 2-((6-(((4-chlorobenzyl)amino)methyl)imidazo[1,2-a]pyridin-2-yl)methyl)-5-phenyl-2,7-naphthyridin-1(2H)-one]",1 to 10
4,"O=c1c2cnccc2ccn1Cc1cn2cc(CNCc3ccccc3)ccc2n1 [Compound 69, 2-((6-((benzylamino)methyl)imidazo[1,2-a]pyridin-2-yl)methyl)-2,7-naphthyridin-1(2H)-one]",> 10

# Same assay, conditions: MOLM-13 human AML cells, 72 hours, CellTiter-Glo 2.0; read-out: MOLM-13 IC50 (cell viability)
row,SMILES,IC50 [µM]
1,"CC1(C)CCN(Cc2ccc3nc(Cn4ccc5c(N6CCOCC6)cncc5c4=O)cn3c2)CC1 [Compound 113, 2-({6-[(4,4-dimethylpiperidin-1-yl)methyl]imidazo[1,2-a]pyridin-2-yl}methyl)-5-(morpholin-4-yl)-1,2-dihydro-2,7-naphthyridin-1-one]",1 to 10
2,"Cc1ccc2nc(Cn3ccc4c(-c5cc[nH]n5)cncc4c3=O)cn2c1 [Compound 15, 2-((6-methylimidazo[1,2-a]pyridin-2-yl)methyl)-5-(1H-pyrazol-3-yl)-2,7-naphthyridin-1(2H)-one]",> 10
3,"O=c1c2cncc(N3CC4(CCOCC4)C3)c2ccn1Cc1cn2cc(CN3CCC4(C3)CC(F)(F)C4)ccc2n1 [Compound 140, 2-{[6-({2,2-difluoro-6-azaspiro[3.4]octan-6-yl}methyl)imidazo[1,2-a]pyridin-2-yl]methyl}-5-{7-oxa-2-azaspiro[3.5]nonan-2-yl}-1,2-dihydro-2,7-naphthyridin-1-one]",1 to 10
4,"CC1(C)CCN(Cc2ccc3nc(Cn4ccc5c(N6CC(N7CCOCC7)C6)cncc5c4=O)cn3c2)CC1 [Compound 118, 2-({6-[(4,4-dimethylpiperidin-1-yl)methyl]imidazo[1,2-a]pyridin-2-yl}methyl)-5-[3-(morpholin-4-yl)azetidin-1-yl]-1,2-dihydro-2,7-naphthyridin-1-one]",1 to 10
5,"O=c1c2cncc(N3CC4(CCOCC4)C3)c2ccn1Cc1cn2cc(CN3CCC4(CCOC4)C3)ccc2n1 (stereo not shown) [Compound 130, 5-{7-oxa-2-azaspiro[3.5]nonan-2-yl}-2-{[6-({2-oxa-7-azaspiro[4.4]nonan-7-yl}methyl)imidazo[1,2-a]pyridin-2-yl]methyl}-1,2-dihydro-2,7-naphthyridin-1-one]",1 to 10
6,"O=c1c2cncc(-c3ccccc3)c2ccn1Cc1cn2cc(CNCC3(O)CCC3)ccc2n1 [Compound 74, 2-((6-((((1-hydroxycyclobutyl)methyl)amino)methyl)imidazo[1,2-a]pyridin-2-yl)methyl)-5-phenyl-2,7-naphthyridin-1(2H)-one]",> 10
7,"CC1(C)CCN(Cc2ccc3nc(Cn4ccc5c(N6CC7(C6)CC(F)(F)C7)cncc5c4=O)cn3c2)CC1 [Compound 111, 5-{6,6-difluoro-2-azaspiro[3.3]heptan-2-yl}-2-({6-[(4,4-dimethylpiperidin-1-yl)methyl]imidazo[1,2-a]pyridin-2-yl}methyl)-1,2-dihydro-2,7-naphthyridin-1-one]",> 10
8,"CCOc1cncc2c(=O)n(Cc3cn4cc(C)ccc4n3)ccc12 [Compound 3, 5-ethoxy-2-((6-methylimidazo[1,2-a]pyridin-2-yl)methyl)-2,7-naphthyridin-1(2H)-one]",> 10
9,"O=c1c2cncc(-c3ccccc3)c2ccn1Cc1cn2cc(CNc3cc(N4CCOCC4)ccn3)ccc2n1 [Compound 102, 2-{[6-({[4-(morpholin-4-yl)pyridin-2-yl]amino}methyl)imidazo[1,2-a]pyridin-2-yl]methyl}-5-phenyl-1,2-dihydro-2,7-naphthyridin-1-one]",1 to 10
10,"CC(=O)Nc1ccc(-c2cncc3c(=O)n(Cc4cn5cc(C)ccc5n4)ccc23)cn1 [Compound 38, N-(5-(7-((6-methylimidazo[1,2-a]pyridin-2-yl)methyl)-8-oxo-7,8-dihydro-2,7-naphthyridin-4-yl)pyridin-2-yl)acetamide]",> 10
11,"O=c1c2cncc(-c3ccccc3)c2ccn1Cc1cn2cc(CNCC3CCCCC3)ccc2n1 [Compound 77, 2-((6-(((cyclohexylmethyl)amino)methyl)imidazo[1,2-a]pyridin-2-yl)methyl)-5-phenyl-2,7-naphthyridin-1(2H)-one]",1 to 10
12,"O=c1c2cncc(N3CCC3)c2ccn1Cc1cn2cc(CNCC3CC(F)C3)ccc2n1 (stereo not shown) [Compound 89, 5-(azetidin-1-yl)-2-((6-((((3-fluorocyclobutyl)methyl)-amino)methyl)imidazo[1,2-a]pyridin-2-yl)methyl)-2,7-naphthyridin-1(2H)-one]",1 to 10
13,"CNC(=O)c1ccc(-c2cncc3c(=O)n(Cc4cn5cc(C)ccc5n4)ccc23)cc1 [Compound 26, N-methyl-4-(7-((6-methylimidazo[1,2-a]pyridin-2-yl)methyl)-8-oxo-7,8-dihydro-2,7-naphthyridin-4-yl)benzamide]",> 10
14,"CC1CCC(CNCc2ccc3nc(Cn4ccc5c(-c6ccccc6)cncc5c4=O)cn3c2)CC1 (stereo not shown) [Compound 85, 2-((6-((((4-methylcyclohexyl)methyl)amino)methyl)imidazo[1,2-a]pyridin-2-yl)methyl)-5-phenyl-2,7-naphthyridin-1(2H)-one]",1 to 10
15,"CNc1ccc2ccc(-c3ccc(Cn4ccc5c(-c6ccccc6)cncc5c4=O)cc3)cc2n1 [Compound 94, 2-(4-(2-(methylamino)quinolin-7-yl)benzyl)-5-phenyl-2,7-naphthyridin-1(2H)-one]",1 to 10
16,"O=c1c2cncc(N3CC4(CCOCC4)C3)c2ccn1Cc1cn2cc(CN3CC4(CCC4)C3)ccc2n1 [Compound 128, 2-{[6-({2-azaspiro[3.3]heptan-2-yl}methyl)imidazo[1,2-a]pyridin-2-yl]methyl}-5-{7-oxa-2-azaspiro[3.5]nonan-2-yl}-1,2-dihydro-2,7-naphthyridin-1-one]",1 to 10
17,"O=c1c2cncc(-c3ccccc3)c2ccn1Cc1cn2cc(CNCC3CC(F)C3)ccc2n1 (stereo not shown) [Compound 79, 2-((6-((((3-fluorocyclobutyl)methyl)amino)methyl)imidazo[1,2-a]pyridin-2-yl)methyl)-5-phenyl-2,7-naphthyridin-1(2H)-one]",1 to 10
18,"O=c1c2cncc(N3CC4(COC4)C3)c2ccn1Cc1cn2cc(CNCC3CC(F)C3)ccc2n1 (stereo not shown) [Compound 143, 2-{[6-({[(3-fluorocyclobutyl)methyl]amino}methyl)imidazo[1,2-a]pyridin-2-yl]methyl}-5-{2-oxa-6-azaspiro[3.3]heptan-6-yl}-1,2-dihydro-2,7-naphthyridin-1-one]",1 to 10
19,"Cc1ccc2nc(Cn3ccc4c(-c5cccnc5)cncc4c3=O)cn2c1 [Compound 17, 2-((6-methylimidazo[1,2-a]pyridin-2-yl)methyl)-5-(pyridin-3-yl)-2,7-naphthyridin-1(2H)-one]",> 10
20,"O=c1c2cncc(N3CC4(CCCOC4)C3)c2ccn1Cc1cn2cc(CNCC34CC(F)(C3)C4)ccc2n1 [Compound 153, 2-[(6-{[({3-fluorobicyclo[1.1.1]pentan-1-yl}methyl)amino]methyl}imidazo[1,2-a]pyridin-2-yl)methyl]-5-{6-oxa-2-azaspiro[3.5]nonan-2-yl}-1,2-dihydro-2,7-naphthyridin-1-one]",< 1
21,"CN1CCN(C2CN(c3cncc4c(=O)n(Cc5cn6cc(CN7CCC(C)(C)CC7)ccc6n5)ccc34)C2)CC1 [Compound 126, 2-({6-[(4,4-dimethylpiperidin-1-yl)methyl]imidazo[1,2-a]pyridin-2-yl}methyl)-5-[3-(4-methylpiperazin-1-yl)azetidin-1-yl]-1,2-dihydro-2,7-naphthyridin-1-one]",> 10
22,"Cc1ccc(CNCc2ccc3nc(Cn4ccc5c(-c6ccccc6)cncc5c4=O)cn3c2)cc1 [Compound 86, 2-((6-(((4-methylbenzyl)amino)methyl)imidazo[1,2-a]pyridin-2-yl)methyl)-5-phenyl-2,7-naphthyridin-1(2H)-one]",1 to 10
23,"Cc1ccc2nc(Cn3ccc4c(-c5c(C)cccc5F)cncc4c3=O)cn2c1 [Compound 30, 5-(2-fluoro-6-methylphenyl)-2-((6-methylimidazo[1,2-a]pyridin-2-yl)methyl)-2,7-naphthyridin-1(2H)-one]",> 10
24,"CN(C)CC1CN(c2cncc3c(=O)n(Cc4cn5cc(CN6CCC(C)(C)CC6)ccc5n4)ccc23)C1 [Compound 125, 5-{3-[(dimethylamino)methyl]azetidin-1-yl}-2-({6-[(4,4-dimethylpiperidin-1-yl)methyl]imidazo[1,2-a]pyridin-2-yl}methyl)-1,2-dihydro-2,7-naphthyridin-1-one]",> 10
25,"O=c1c2cncc(N3CC4(CCOCC4)C3)c2ccn1Cc1cn2cc(CN3CCC4(CCC4)CC3)ccc2n1 [Compound 129, 2-((6-((7-azaspiro[3.5]nonan-7-yl)methyl)imidazo[1,2-a]pyridin-2-yl)methyl)-5-(7-oxa-2-azaspiro[3.5]nonan-2-yl)-2,7-naphthyridin-1(2H)-one]",1 to 10
26,"CC(C)(C)CNCc1ccc2nc(Cn3ccc4c(-c5ccccc5)cncc4c3=O)cn2c1 [Compound 73, 2-((6-((neopentylamino)methyl)imidazo[1,2-a]pyridin-2-yl)methyl)-5-phenyl-2,7-naphthyridin-1(2H)-one]",1 to 10
27,"O=c1c2cncc(N3CC4(CCOCC4)C3)c2ccn1Cc1cn2cc(CN3CC4(CC(F)C4)C3)ccc2n1 [Compound 136, 2-{[6-({6-fluoro-2-azaspiro[3.3]heptan-2-yl}methyl)imidazo[1,2-a]pyridin-2-yl]methyl}-5-{7-oxa-2-azaspiro[3.5]nonan-2-yl}-1,2-dihydro-2,7-naphthyridin-1-one]",1 to 10
